Read-outs that look alike come from different tables or passages of the source.

Assay [1] concerns Ba/F3-FGFR3-transfected cells. Description: Ba/F3-FGFR3 (plus IL3) cellular proliferation assay, counterscreen with 10 ng/ml murine IL3. The assay is classed as cell-based. The following applies: for IC50: read-out: BAF3-FGFR3 (PLUS IL3) pIC50 (converted). The procedure:
(§1) Ba/F3-FGFR3 (Minus IL3 or Plus IL3) (Cellular Proliferation Assay)
(§2) In a 384 well plate, 100 nl of compound dilution in DMSO was sprayed before adding 50 μl cell culture medium (phenol red free RPMI-1640, 10% FBS, 2 mM L-Glutamine and 50 μg/ml Gentamycin) containing 20000 cells per well of Ba/F3-FGFR3-transfected cells. Cells were put in an incubator at 37° C. and 5% CO2. After 24 hours, 10 μl of Alamar Blue solution (0.5 mM K3Fe(CN)6, 0.5 mM K4Fe(CN)6, 0.15 mM Resazurin and 100 mM Phosphate Buffer) was added to the wells, incubated for 4 hours at 37° C. and 5% CO2 before RFU's (Relative Fluorescence Units) (ex. 540 nm., em. 590 nm.) were measured in a fluororescence plate reader.
(§3) As a counterscreen the same experiment was performed in the presence of 10 ng/ml murine IL3.
In general terms: The purpose of a counterscreen is to sort out artefacts and off-target activity.

The target in a further assay is FGFR1 (h) (Homo sapiens, UniProt P11362). Description: FGFR1 (enzymatic assay), TR-FRET. The note with it: read-out: FGFR 1 pIC50 (converted). The assay is classed as biochemical. On the technique in general: TR-FRET usually uses a lanthanide donor and a delayed reading to cut background.
FGFR1 (h), sequence (P11362 22-822): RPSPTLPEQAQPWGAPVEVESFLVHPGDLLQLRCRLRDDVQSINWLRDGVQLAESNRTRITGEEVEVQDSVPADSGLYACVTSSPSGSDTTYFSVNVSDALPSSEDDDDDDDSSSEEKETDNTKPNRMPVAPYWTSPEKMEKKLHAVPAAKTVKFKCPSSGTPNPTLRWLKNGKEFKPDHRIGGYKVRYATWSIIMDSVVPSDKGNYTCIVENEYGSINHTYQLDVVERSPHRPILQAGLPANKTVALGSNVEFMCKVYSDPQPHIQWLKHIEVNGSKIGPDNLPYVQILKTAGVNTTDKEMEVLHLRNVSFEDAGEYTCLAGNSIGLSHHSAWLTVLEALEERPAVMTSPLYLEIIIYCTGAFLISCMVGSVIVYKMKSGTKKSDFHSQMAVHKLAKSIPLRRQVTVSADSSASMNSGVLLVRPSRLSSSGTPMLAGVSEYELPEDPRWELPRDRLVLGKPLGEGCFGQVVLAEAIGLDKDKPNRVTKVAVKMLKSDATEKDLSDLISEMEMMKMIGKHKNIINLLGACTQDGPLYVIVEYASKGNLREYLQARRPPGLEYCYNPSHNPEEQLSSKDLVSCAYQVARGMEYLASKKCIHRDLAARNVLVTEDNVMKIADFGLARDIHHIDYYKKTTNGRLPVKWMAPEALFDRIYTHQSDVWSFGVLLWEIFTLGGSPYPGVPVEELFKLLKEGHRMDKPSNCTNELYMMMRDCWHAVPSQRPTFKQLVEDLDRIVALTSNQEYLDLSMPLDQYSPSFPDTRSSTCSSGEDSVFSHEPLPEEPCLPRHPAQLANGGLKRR
The target in the next assay is KDR (h) (Homo sapiens, UniProt P35968). The assay can be described thus: KDR (VEGFR2) (enzymatic assay), TR-FRET. The following applies: read-out: VEGFR 2 (KDR) pIC50 (converted). It is filed as biochemical. The procedure:
KDR (VEGFR2) (Enzymatic Assay)
In a final reaction volume of 30 μL, KDR (h) (150 ng/ml) was incubated with 50 mM HEPES pH 7.5, 6 mM MnCl2, 1 mM DTT, 0.1 mM Na3VO4, 0.01% Triton-X-100, 500 nM Btn-Flt3 and 3 μM ATP in the presence of compound (1% DMSO final). After incubation for 120 minutes at room temperature the reaction was stopped with 2.27 nM EU-anti P-Tyr, 7 mM EDTA, 31.25 nM SA-XL-665 and 0.02% BSA which was present for 60 minutes at room temperature. Time-Resolved Fluorescence Resonance Energy Transfer (TR-FRET) signal (ex340 nm. Em 620 nm, em 655 nm) was measured afterwards and results are expressed in RFU (Relative Fluorescence Units).

In a further assay the target is FGFR4 (h) (Homo sapiens, UniProt P22455). Description: FGFR4 (enzymatic assay), TR-FRET. It is filed as biochemical. The following applies: FGFR 4 pIC50, enzymatic assay.
FGFR4 (h), sequence (P22455 22-802): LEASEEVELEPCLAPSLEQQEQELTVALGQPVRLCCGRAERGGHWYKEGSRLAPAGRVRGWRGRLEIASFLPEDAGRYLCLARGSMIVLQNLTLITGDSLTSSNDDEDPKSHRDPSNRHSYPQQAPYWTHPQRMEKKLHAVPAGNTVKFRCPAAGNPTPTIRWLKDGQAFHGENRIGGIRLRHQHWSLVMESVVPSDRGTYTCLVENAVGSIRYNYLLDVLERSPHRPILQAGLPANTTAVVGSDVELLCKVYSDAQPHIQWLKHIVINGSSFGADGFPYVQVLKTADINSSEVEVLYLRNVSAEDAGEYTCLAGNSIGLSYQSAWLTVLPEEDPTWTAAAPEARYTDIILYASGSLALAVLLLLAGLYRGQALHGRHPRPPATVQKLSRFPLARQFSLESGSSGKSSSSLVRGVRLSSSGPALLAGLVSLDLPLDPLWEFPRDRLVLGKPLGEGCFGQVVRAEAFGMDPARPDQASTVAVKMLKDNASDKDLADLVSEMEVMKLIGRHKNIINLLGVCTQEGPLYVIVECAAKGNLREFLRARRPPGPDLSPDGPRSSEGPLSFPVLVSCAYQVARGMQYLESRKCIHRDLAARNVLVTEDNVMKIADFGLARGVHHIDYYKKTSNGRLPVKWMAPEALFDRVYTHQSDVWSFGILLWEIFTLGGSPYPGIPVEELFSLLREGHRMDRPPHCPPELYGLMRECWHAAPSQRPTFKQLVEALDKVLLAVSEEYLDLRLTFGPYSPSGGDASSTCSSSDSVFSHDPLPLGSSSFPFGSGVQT
In the next assay the target is FGFR3 (h) (Homo sapiens, UniProt P22607). Description: FGFR3 (enzymatic assay), TR-FRET. The note with it: read-out: FGFR 3 pIC50 (converted). The assay is classed as biochemical. The text has this: Time-Resolved Fluorescence Resonance Energy Transfer (TR-FRET) signal (ex340 nm.
FGFR3 (h), sequence (P22607 23-806): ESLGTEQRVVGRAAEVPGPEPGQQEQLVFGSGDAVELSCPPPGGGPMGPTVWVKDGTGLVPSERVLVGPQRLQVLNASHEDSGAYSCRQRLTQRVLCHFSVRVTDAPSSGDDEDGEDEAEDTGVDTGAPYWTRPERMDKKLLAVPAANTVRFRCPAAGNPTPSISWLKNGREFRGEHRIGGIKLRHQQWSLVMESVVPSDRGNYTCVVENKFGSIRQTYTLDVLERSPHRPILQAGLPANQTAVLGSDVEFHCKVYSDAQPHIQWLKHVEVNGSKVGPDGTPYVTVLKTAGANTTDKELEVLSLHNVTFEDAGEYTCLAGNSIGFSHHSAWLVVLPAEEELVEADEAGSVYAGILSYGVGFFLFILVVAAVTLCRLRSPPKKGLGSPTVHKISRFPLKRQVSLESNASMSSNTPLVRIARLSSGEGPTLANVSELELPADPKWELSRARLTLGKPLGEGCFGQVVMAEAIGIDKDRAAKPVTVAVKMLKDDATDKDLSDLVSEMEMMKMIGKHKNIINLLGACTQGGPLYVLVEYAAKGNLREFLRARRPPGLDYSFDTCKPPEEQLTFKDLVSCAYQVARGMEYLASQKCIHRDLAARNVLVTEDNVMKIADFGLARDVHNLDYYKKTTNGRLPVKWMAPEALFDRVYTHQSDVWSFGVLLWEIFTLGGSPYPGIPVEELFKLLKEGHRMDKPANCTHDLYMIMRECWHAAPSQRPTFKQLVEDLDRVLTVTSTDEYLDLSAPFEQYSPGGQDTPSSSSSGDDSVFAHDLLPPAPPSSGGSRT
For assay [2], the target named is T1, Ba/F3-FGFR1-transfected cells (Homo sapiens, UniProt P11362).
T1 construct: BAF3-FGFR1 (MIN IL3) pIC50; other: minus IL3
T1 sequence (P11362 whole entry, change not shown): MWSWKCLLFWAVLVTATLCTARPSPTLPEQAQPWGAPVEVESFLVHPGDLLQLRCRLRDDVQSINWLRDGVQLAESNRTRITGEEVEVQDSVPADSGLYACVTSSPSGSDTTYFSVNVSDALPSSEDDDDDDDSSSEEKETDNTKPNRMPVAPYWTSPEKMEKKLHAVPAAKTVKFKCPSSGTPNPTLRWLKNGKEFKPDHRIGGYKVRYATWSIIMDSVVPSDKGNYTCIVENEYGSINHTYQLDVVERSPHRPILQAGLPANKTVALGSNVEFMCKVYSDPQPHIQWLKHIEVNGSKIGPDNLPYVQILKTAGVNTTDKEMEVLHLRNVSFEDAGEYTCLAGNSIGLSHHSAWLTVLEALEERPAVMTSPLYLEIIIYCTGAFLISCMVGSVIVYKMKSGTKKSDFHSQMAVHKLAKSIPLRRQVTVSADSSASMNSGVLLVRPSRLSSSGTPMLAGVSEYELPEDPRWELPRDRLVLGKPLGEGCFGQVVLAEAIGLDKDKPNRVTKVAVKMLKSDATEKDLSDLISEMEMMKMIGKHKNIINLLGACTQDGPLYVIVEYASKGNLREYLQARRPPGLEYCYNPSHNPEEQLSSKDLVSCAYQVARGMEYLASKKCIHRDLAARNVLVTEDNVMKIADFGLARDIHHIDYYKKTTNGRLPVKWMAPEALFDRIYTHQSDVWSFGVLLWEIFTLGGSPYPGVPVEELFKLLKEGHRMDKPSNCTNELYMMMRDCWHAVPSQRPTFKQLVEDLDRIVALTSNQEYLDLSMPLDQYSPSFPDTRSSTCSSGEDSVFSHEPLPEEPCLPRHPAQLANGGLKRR
The assay can be described thus: Ba/F3-FGFR1 (minus IL3) cellular proliferation assay, Alamar Blue. It is filed as cell-based. As for the experimental part: (§4) Ba/F3-FGFR1 (Minus IL3 or Plus IL3) (Cellular Proliferation Assay)
as §2, with “Ba/F3-FGFR1-transfected” for “Ba/F3-FGFR3-transfected”
For orientation: Alamar Blue is a resazurin reagent that responds to reducing activity.

The next assay concerns the target FGFR2 (h) (Homo sapiens, UniProt P21802). Description: FGFR2 (enzymatic assay), TR-FRET. It is filed as biochemical. The following applies: enzymatic assay, read-out: FGFR 2 pIC50 (converted). The procedure:
In a final reaction volume of 30 μL, FGFR2 (h) (150 ng/ml) was incubated with 50 mM HEPES pH 7.5, 6 mM MnCl2, 1 mM DTT, 0.1 mM Na3VO4, 0.01% Triton-X-100, 500 nM Btn-Flt3 and 0.4 μM ATP in the presence of compound (1% DMSO final).

Assay [3] has as its system Ba/F3-FGFR1-transfected cells. Description: Ba/F3-FGFR1 (plus IL3) cellular proliferation assay, counterscreen with 10 ng/ml murine IL3. The following applies: for IC50: read-out: BAF3-FGFR1 (PLUS IL3) pIC50 (converted). The assay is classed as cell-based. The procedure:
as §4
as §2, with “Ba/F3-FGFR1-transfected” for “Ba/F3-FGFR3-transfected”
as §3

Assay [4] deals with Ba/F3-FGFR4-transfected cells (Homo sapiens, UniProt P22455). Description: Ba/F3-FGFR4 cellular proliferation assay, Alamar Blue. The assay is classed as cell-based. The procedure: Ba/F3-FGFR4 (Cellular Proliferation Assay)
Ba/F3-FGFR4-transfected cells, sequence (P22455 whole entry, change not shown): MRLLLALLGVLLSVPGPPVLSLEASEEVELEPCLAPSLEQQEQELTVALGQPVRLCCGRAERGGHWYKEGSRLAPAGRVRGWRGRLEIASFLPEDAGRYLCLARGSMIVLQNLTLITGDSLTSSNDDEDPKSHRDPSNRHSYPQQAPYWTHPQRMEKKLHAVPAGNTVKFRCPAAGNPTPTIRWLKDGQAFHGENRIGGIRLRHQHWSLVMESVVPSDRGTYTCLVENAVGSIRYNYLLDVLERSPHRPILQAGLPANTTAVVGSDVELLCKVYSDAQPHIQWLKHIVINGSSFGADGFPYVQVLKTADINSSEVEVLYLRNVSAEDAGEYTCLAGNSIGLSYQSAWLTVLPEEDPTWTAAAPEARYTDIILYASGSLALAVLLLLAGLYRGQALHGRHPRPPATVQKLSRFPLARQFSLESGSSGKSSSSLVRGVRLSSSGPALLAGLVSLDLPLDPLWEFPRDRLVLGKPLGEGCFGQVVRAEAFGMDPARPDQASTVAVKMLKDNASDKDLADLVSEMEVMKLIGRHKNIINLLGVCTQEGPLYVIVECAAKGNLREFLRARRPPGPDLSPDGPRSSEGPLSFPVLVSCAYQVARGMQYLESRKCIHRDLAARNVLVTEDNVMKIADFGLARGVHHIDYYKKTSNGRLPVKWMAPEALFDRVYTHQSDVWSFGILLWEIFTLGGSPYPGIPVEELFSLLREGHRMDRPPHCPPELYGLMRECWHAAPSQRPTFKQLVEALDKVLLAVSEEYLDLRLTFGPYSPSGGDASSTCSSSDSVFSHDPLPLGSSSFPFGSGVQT
as §2, with “n1” for “nl”, “Ba/F3-FGFR4-transfected” for “Ba/F3-FGFR3-transfected”

Assay [5] has as its target T2, Ba/F3-FGFR3-transfected cells (Homo sapiens, UniProt P22607).
T2 construct: BAF3-FGFR3 (MIN IL3) pIC50; other: minus IL3
Description: Ba/F3-FGFR3 (minus IL3) cellular proliferation assay, Alamar Blue. The assay is classed as cell-based. As for the experimental part: as §1
as §2, with “reader. […]” for “reader.”

Assay [6] deals with Ba/F3-KDR-transfected cells. The assay can be described thus: Ba/F3-KDR (plus IL3) cellular proliferation assay, counterscreen with 10 ng/ml murine IL3. The assay is classed as cell-based. The note with it: for IC50: read-out: BAF3-KDR (PLUS IL3) pIC50 (converted). The procedure: (§5) Ba/F3-KDR (Minus IL3 or Plus IL3) (Cellular Proliferation Assay)
as §2, with “n1” for “nl”, “Ba/F3-KDR-transfected” for “Ba/F3-FGFR3-transfected”
as §3

For assay [7], the target named is T3, Ba/F3-KDR-transfected cells (Homo sapiens, UniProt P35968).
T3 construct: BAF3-KDR (MIN IL3) pIC50; other: minus IL3
The assay can be described thus: Ba/F3-KDR (minus IL3) cellular proliferation assay, Alamar Blue. It is filed as cell-based. The procedure:
as §5
as §2, with “n1” for “nl”, “Ba/F3-KDR-transfected” for “Ba/F3-FGFR3-transfected”, “reader. […]” for “reader.”

[8] abbreviates: average values if tested multiple times.
Setting [9] is: plus IL3 (10 ng/ml murine IL3, counterscreen).

FGFR2 (h), sequence (P21802 22-821): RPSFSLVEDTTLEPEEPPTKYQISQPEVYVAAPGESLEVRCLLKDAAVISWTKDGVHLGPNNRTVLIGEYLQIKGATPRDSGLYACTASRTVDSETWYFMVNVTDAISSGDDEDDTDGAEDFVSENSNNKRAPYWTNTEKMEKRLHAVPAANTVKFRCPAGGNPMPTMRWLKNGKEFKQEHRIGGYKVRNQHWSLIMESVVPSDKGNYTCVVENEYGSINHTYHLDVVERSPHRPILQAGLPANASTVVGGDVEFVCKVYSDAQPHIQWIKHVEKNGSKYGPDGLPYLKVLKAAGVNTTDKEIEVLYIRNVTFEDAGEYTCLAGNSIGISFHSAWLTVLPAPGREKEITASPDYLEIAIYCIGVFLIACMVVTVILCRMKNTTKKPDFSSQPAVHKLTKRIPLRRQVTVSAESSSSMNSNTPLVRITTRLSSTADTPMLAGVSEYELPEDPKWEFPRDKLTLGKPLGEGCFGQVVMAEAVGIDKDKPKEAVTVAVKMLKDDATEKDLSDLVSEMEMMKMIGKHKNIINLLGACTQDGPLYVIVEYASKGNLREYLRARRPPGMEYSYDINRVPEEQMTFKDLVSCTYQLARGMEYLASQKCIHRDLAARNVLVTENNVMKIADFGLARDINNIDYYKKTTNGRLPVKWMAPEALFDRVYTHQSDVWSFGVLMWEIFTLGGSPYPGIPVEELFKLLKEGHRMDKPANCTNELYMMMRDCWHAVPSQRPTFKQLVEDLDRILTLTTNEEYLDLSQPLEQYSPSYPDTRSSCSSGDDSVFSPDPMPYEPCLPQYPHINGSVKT

With `CNCCn1/c(=N/c2c(F)c(OC)cc(OC)c2F)ccc2ncc(-c3cn[nH]c3)nc21` [Compound 121], the IC50 was greater than 10000 nM in [1]; 1.62 nM at FGFR1 (h); 26.9 nM on KDR (h); 2.95 nM on FGFR4 (h); 1 nM at FGFR3 (h); 2.57 nM at FGFR2 (h). For the same compound, the IC50 in [3] and in assay [6] was greater than 10000 nM each time. Moreover, the “BAF3-FGFR1 (MIN IL3) pIC50” value in [2] is 7.38. In assay [4], the “BAF3-FGFR4 pIC50” value is 6.08. Moreover, the “BAF3-FGFR3 (MIN IL3) pIC50” value in [5] is reported as 6.88. For the same compound, the “BAF3-KDR (MIN IL3) pIC50” value in [7] is recorded as 5.25.

In the case of `CNCCn1/c(=N/c2c(F)ccc(OC)c2Cl)ccc2ncc(-c3cnn(C)c3)nc21` [Compound 70], the IC50 in assay [1] was greater than 10000 nM; on FGFR1 (h) (setting [8]), 39.8 nM; at KDR (h) (setting [8]), 537 nM; against FGFR4 (h) (setting [8]), 93.3 nM; at FGFR3 (h) (setting [8]) it was 38.9 nM; on FGFR2 (h) (setting [8]) it was 23.4 nM. Besides, the IC50 in assay [3] and in [6] was greater than 10000 nM each time. In assay [2], the “BAF3-FGFR1 (MIN IL3) pIC50” value stood at 5.75. Also, the “BAF3-FGFR4 pIC50” value in [4] is recorded as 5.69. Besides, in assay [5], the “BAF3-FGFR3 (MIN IL3) pIC50” value was determined as 6.31. For the same compound, the “BAF3-KDR (MIN IL3) pIC50” value in assay [7] is less than 5.

Consider `COc1cc(OC)c(F)c(N(CC(O)COC(C)C)c2ccc3ncc(-c4cnn(C)c4)nc3n2)c1F` (stereo not shown) [Compound 62], for which, in assay [1] (setting [9]), the “BAF3-FGFR3 (PLUS IL3) pIC50” value is recorded as less than 5. In addition, the IC50 at FGFR1 (h) (setting [8]) is 4.07 nM; on KDR (h) (setting [8]), 32.4 nM; at FGFR4 (h) (setting [8]) it was 3.31 nM; on FGFR3 (h) (setting [8]), 5.5 nM; at FGFR2 (h) (setting [8]), 7.76 nM. The “BAF3-FGFR1 (MIN IL3) pIC50” value in assay [2] came to 8.06. For the same compound, the “BAF3-FGFR1 (PLUS IL3) pIC50” value in [3] (setting [9]) was less than 5. The “BAF3-FGFR4 pIC50” value in assay [4] turned out to be 7.92. Also, the “BAF3-FGFR3 (MIN IL3) pIC50” value in assay [5] amounted to 8.10. The “BAF3-KDR (PLUS IL3) pIC50” value in assay [6] (setting [9]) is given as less than 5. Also, in [7], the “BAF3-KDR (MIN IL3) pIC50” value is 6.21.

In the case of `COc1cc(OC)c(F)c(N(Cc2nc3ccccc3[nH]2)c2ccc3ncc(-c4cnn(C)c4)nc3n2)c1` [Compound 80], the IC50 in [1] was greater than 10000 nM; on FGFR1 (h) (setting [8]), 1.35 nM; on KDR (h) (setting [8]), 10.2 nM; against FGFR4 (h) (setting [8]) it was 1.55 nM; at FGFR3 (h) (setting [8]), 1.82 nM; at FGFR2 (h) (setting [8]) it was 2.63 nM. The IC50 in assay [3] and in assay [6] was greater than 10000 nM each time. The “BAF3-FGFR1 (MIN IL3) pIC50” value in assay [2] worked out at 7.76. Also, in [4], the “BAF3-FGFR4 pIC50” value was determined as 7.36. The “BAF3-FGFR3 (MIN IL3) pIC50” value in [5] was determined as 8.08. Besides, the “BAF3-KDR (MIN IL3) pIC50” value in assay [7] was determined as 5.79.

For the compound `COc1cc(OC)c(F)c(N(CCNC(C)C)c2ccc3ncc(-c4cnn(C)c4)nc3n2)c1` [Compound 2], the IC50 in [1] is greater than 10000 nM; at FGFR1 (h) (setting [8]), 2 nM; on KDR (h) (setting [8]) it was 79.4 nM; at FGFR4 (h) (setting [8]), 7.94 nM; at FGFR3 (h) (setting [8]), 3.16 nM; on FGFR2 (h) (setting [8]), 5.01 nM. In addition, in assay [3], the IC50 is greater than 10000 nM. Besides, the “BAF3-FGFR1 (MIN IL3) pIC50” value in assay [2] was 8.3. In addition, in [4], the “BAF3-FGFR4 pIC50” value came to 7.64. In [5], the “BAF3-FGFR3 (MIN IL3) pIC50” value was 8.0. Also, the “BAF3-KDR (MIN IL3) pIC50” value in assay [7] is reported as 6.2.

For `COc1cc(OC)cc(N(Cc2ncccn2)c2ccc3ncc(-c4cnn(C)c4)nc3n2)c1` [Compound 12], the IC50 is greater than 10000 nM in assay [1] (setting [9]); 1.58 nM on FGFR1 (h) (setting [8]); 39.8 nM on KDR (h) (setting [8]); 12.6 nM at FGFR4 (h) (setting [8]); 2.51 nM on FGFR3 (h) (setting [8]); 3.98 nM at FGFR2 (h) (setting [8]). Also, the IC50 in assay [3] (setting [9]) was greater than 10000 nM. Moreover, the “BAF3-FGFR1 (MIN IL3) pIC50” value in [2] was 7.3. Further, the “BAF3-FGFR4 pIC50” value in assay [4] is on record as 6.26. The “BAF3-FGFR3 (MIN IL3) pIC50” value in assay [5] is 7.1. Further, the “BAF3-KDR (MIN IL3) pIC50” value in assay [7] is 5.5.
